Assay results as given in patent US20030144360A1, “Composition and method for modulating BAR/FXR receptor activity” (Allergan Sales, Inc., priority 2001, published 2003).
Values joined by “and” are separate entries in the source; they are usually repeats but may differ in a detail not shown here. Equal values may be shown once.

Biological target: T1, GAL-L-hRXRa (Homo sapiens, UniProt P19793)
T1 sequence (P19793 203-462): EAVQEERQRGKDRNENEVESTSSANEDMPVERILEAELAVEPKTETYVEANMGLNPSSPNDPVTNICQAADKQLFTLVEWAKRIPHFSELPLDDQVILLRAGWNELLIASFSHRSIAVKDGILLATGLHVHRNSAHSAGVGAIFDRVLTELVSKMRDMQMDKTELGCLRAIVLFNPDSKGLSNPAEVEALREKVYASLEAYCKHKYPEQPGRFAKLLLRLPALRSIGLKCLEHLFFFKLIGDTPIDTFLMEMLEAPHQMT
Assay: Co-transfection luciferase assay, MH100 × 4 reporter, GAL-L-hRXRa alone

CCCCCCOc1c(\C(C)=C/C=C/C(C)=C/C(=O)O)cc(C(C)C)cc1C(C)C [AGN 34, (2E, 4E, 6Z)-7-(2-Hexyloxy-3,5-diisopropylphenyl)-3-methylocta-2,4,6-trienoic Acid]
Fold Activation (0.1 μM LG268 + 0.01 μM AGN 34): 33.56 fold
Reporter Activity (0.1 μM LG268 + 0.01 μM AGN 34): 11.17
Fold Activation (0.1 μM LG268 + 0.1 μM AGN 34): 8.61 fold
Reporter Activity (0.1 μM LG268 + 0.1 μM AGN 34): 2.86
Fold Activation (0.1 μM LG268 + 1 μM AGN 34): 1.07 fold
Reporter Activity (0.1 μM LG268 + 1 μM AGN 34): 0.36
Fold Activation (0.1 μM LG268 + 3 μM AGN 34): 1.05 fold
Reporter Activity (0.1 μM LG268 + 3 μM AGN 34): 0.35
Fold Activation (0.1 μM LG268 + 10 μM AGN 34): 0.98 fold
Reporter Activity (0.1 μM LG268 + 10 μM AGN 34): 0.33
Fold Activation (10 μM AGN 34 alone): 1.14 fold and 1.12 fold
Reporter Activity (10 μM AGN 34 alone): 0.38 and 0.37
Fold Activation (50 μM CDCA + 0.01 μM AGN 34): 1.03 fold
Reporter Activity (50 μM CDCA + 0.01 μM AGN 34): 0.34
Fold Activation (50 μM CDCA + 0.1 μM AGN 34): 0.92 fold
Reporter Activity (50 μM CDCA + 0.1 μM AGN 34): 0.31
Reporter Activity (50 μM CDCA + 1 μM AGN 34): 0.37
Fold Activation (50 μM CDCA + 3 μM AGN 34): 1.05 fold
Reporter Activity (50 μM CDCA + 3 μM AGN 34): 0.35
Fold Activation (50 μM CDCA + 10 μM AGN 34): 1.10 fold
Reporter Activity (50 μM CDCA + 10 μM AGN 34): 0.37
